Data: PubChem BioAssay AID248 (DTP/NCI, 2004)
Inconclusive results and toxic doses are left out. No stated cut-off is given here; in the data, active means T/C of 150% or more; inactive means T/C below 125%. Square brackets hold non-standard residues; d marks the D form. Peptide text beside a SMILES is read from it. * marks the point of attachment. ξ: configuration not given here. ξF = NC(Cc1ccccc1)C(=O)O; Cbz = O=C(OCc1ccccc1)*; OBn = c1ccc(CO*)cc1

Test system: L1210 leukemia ip in BDF1 mice, survival T/C
Test: NCI In Vivo Anticancer Drug Screen. Data for tumor model L1210 Leukemia (intraperitoneal) in B6D2F1 (BDF1) mice
Details: endpoint: mean survival time, higher = longer survival
Method in brief: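 In this screen, tumor-bearing mice given compound are compared to those given vehicle, and their survival values are reported as a treated-to-control quotient.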

[1] = dose: 100.0 mg/kg/injection, schedule: Q01DX001 (ip), vehicle: saline
[2] = dose: 200.0 mg/kg/injection, schedule: Q01DX001 (ip), vehicle: saline
[3] = dose: 400.0 mg/kg/injection, schedule: Q01DX001 (ip), vehicle: saline
[4] = dose: 100.0 mg/kg/injection, schedule: Q01DX009 (ip), vehicle: saline
[5] = dose: 100.0 mg/kg/injection, schedule: Q04DX003 (ip), vehicle: saline
[6] = dose: 200.0 mg/kg/injection, schedule: Q01DX009 (ip), vehicle: saline
[7] = dose: 200.0 mg/kg/injection, schedule: Q04DX003 (ip), vehicle: saline
[8] = dose: 100.0 mg/kg/injection, schedule: Q01DX001 (ip), vehicle: carboxymethylcellulose (CMC)
[9] = dose: 200.0 mg/kg/injection, schedule: Q01DX001 (ip), vehicle: carboxymethylcellulose (CMC)
[10] = dose: 400.0 mg/kg/injection, schedule: Q01DX001 (ip), vehicle: carboxymethylcellulose (CMC)
[11] = dose: 100.0 mg/kg/injection, schedule: Q04DX003 (ip), vehicle: Klucel (hydroxypropylcellulose) (HPC)
[12] = dose: 200.0 mg/kg/injection, schedule: Q04DX003 (ip), vehicle: Klucel (hydroxypropylcellulose) (HPC)
[13] = dose: 400.0 mg/kg/injection, schedule: Q04DX003 (ip), vehicle: Klucel (hydroxypropylcellulose) (HPC)
[14] = dose: 100.0 mg/kg/injection, schedule: Q04DX003 (ip), vehicle: saline with Tween-80
[15] = dose: 200.0 mg/kg/injection, schedule: Q04DX003 (ip), vehicle: saline with Tween-80
[16] = dose: 50.0 mg/kg/injection, schedule: Q01DX009 (ip), vehicle: saline with Tween-80
[17] = dose: 100.0 mg/kg/injection, schedule: Q01DX009 (ip), vehicle: saline with Tween-80
[18] = dose: 200.0 mg/kg/injection, schedule: Q01DX009 (ip), vehicle: saline with Tween-80
[19] = dose: 50.0 mg/kg/injection, schedule: Q01DX005 (ip), vehicle: saline
[20] = dose: 100.0 mg/kg/injection, schedule: Q01DX005 (ip), vehicle: saline
[21] = dose: 200.0 mg/kg/injection, schedule: Q01DX005 (ip), vehicle: saline
[22] = dose: 400.0 mg/kg/injection, schedule: Q01DX009 (ip), vehicle: saline
[23] = dose: 100.0 mg/kg/injection, schedule: Q01DX001 (ip), vehicle: Klucel (hydroxypropylcellulose) (HPC)
[24] = dose: 200.0 mg/kg/injection, schedule: Q01DX001 (ip), vehicle: Klucel (hydroxypropylcellulose) (HPC)
[25] = dose: 400.0 mg/kg/injection, schedule: Q01DX001 (ip), vehicle: Klucel (hydroxypropylcellulose) (HPC)

Measured: T/C

O=C(/C(=C\c1ccccc1)c1ccccc1)c1ccc(O)cc1
inactive: [1] 98 % of control | [2] 101 % of control | [3] 101 % of control

CCNCC#CCNCC
inactive: [4] 96 % of control | [5] 96 % of control | [6] 107 % of control | [7] 98 % of control | dose: 400.0 mg/kg/injection, schedule: Q04DX003 (ip), vehicle: saline 99 % of control

Nc1c(Cl)cc2c(c1Br)Cc1ccccc1-2
inactive: dose: 50.0 mg/kg/injection, schedule: Q01DX001 (ip), vehicle: carboxymethylcellulose (CMC) 107 % of control | [8] 107 % of control | [9] 117 % of control | [10] 107 % of control

Cc1c(C)c(Cl)c(C)c(Cl)c1O
inactive: dose: 100.0 mg/kg/injection, schedule: Q01DX009 (ip), vehicle: Klucel (hydroxypropylcellulose) (HPC) 94 % of control | [11] 98 % of control | dose: 200.0 mg/kg/injection, schedule: Q01DX009 (ip), vehicle: Klucel (hydroxypropylcellulose) (HPC) 89 % of control | [12] 93 % of control | dose: 400.0 mg/kg/injection, schedule: Q01DX009 (ip), vehicle: Klucel (hydroxypropylcellulose) (HPC) 91 % of control | [13] 105 % of control

O=C(Nc1ccccc1-c1ccc([N+](=O)[O-])cc1)c1cc(Cl)cc(Cl)c1
inactive: [14] 88 % of control | [15] 88 % of control

Cc1ccc(C)c(NS(C)(=O)=O)c1
inactive: dose: 50.0 mg/kg/injection, schedule: Q01DX001 (ip), vehicle: saline 96 % of control | [1] 91 % of control | [2] 102 % of control | [3] 102 % of control

CC1(C)CC(=O)C2=C(C1)Nc1ccc(Cl)cc1NC2c1cccc([N+](=O)[O-])c1 (stereo not given)
inactive: dose: 100.0 mg/kg/injection, schedule: Q04DX002 (ip), vehicle: Klucel (hydroxypropylcellulose) (HPC) 98 % of control | dose: 200.0 mg/kg/injection, schedule: Q04DX002 (ip), vehicle: Klucel (hydroxypropylcellulose) (HPC) 105 % of control | dose: 400.0 mg/kg/injection, schedule: Q04DX002 (ip), vehicle: Klucel (hydroxypropylcellulose) (HPC) 102 % of control

CCCCCCCCCCCCOc1ccccc1
inactive: [16] 97 % of control | [17] 92 % of control | [14] 88 % of control | [18] 109 % of control | [15] 92 % of control

O=C(CNC(=O)OCc1ccccc1)NC(Cc1ccccc1)C(=O)OCc1ccccc1 (stereo not drawn) (Cbz-Gly-[ξF]-OBn)
inactive: [14] 101 % of control | [15] 103 % of control | dose: 400.0 mg/kg/injection, schedule: Q04DX003 (ip), vehicle: saline with Tween-80 95 % of control

CCOC(=O)C1=C(C#N)C(C(=O)OCC)c2ncccc21 (stereo not given)
inactive: [19] 97 % of control | [20] 88 % of control | [21] 87 % of control | dose: 400.0 mg/kg/injection, schedule: Q01DX005 (ip), vehicle: saline 95 % of control

CN(C)NC(=O)CC(N)C(=O)O (stereo not given)
inactive: [4] 97 % of control | [6] 114 % of control | [22] 100 % of control

O=C(O)C1CC=CCC1C(=O)NC(O)C(Cl)(Cl)Cl (stereo not given)
inactive: [1] 96 % of control | [4] 103 % of control | dose: 100.0 mg/kg/injection, schedule: Q04DX003 (ip), vehicle: acetone 93 % of control | [2] 100 % of control | [6] 102 % of control | dose: 200.0 mg/kg/injection, schedule: Q04DX003 (ip), vehicle: acetone 98 % of control | [3] 95 % of control | [22] 100 % of control | dose: 400.0 mg/kg/injection, schedule: Q04DX003 (ip), vehicle: acetone 97 % of control

Cc1[nH]c(=O)n(C)c(=O)c1C
inactive: [23] 109 % of control | [24] 106 % of control | [25] 104 % of control

CC(C(O)c1ccc(Cl)cc1)C(O)(C(F)(F)F)C(F)(F)F (stereo not given)
inactive: dose: 75.0 mg/kg/injection, schedule: Q01DX009 (ip), vehicle: saline with Tween-80 100 % of control | dose: 150.0 mg/kg/injection, schedule: Q01DX009 (ip), vehicle: saline with Tween-80 110 % of control | dose: 300.0 mg/kg/injection, schedule: Q01DX009 (ip), vehicle: saline with Tween-80 101 % of control

CC12CCC3(CCC4(C)C(=C3C1)CCC1C3(C)CCC(OC5OC(CO)C(O)C(O)C5O)C(C)(C)C3CCC14C)C(=O)O2 (stereo not given)
inactive: [16] 104 % of control | [17] 108 % of control | [18] 114 % of control

c1ccc(-n2nnnc2-c2nnnn2-c2ccccc2)cc1
inactive: [1] 98 % of control | [2] 98 % of control | [3] 101 % of control

Nc1nc(SCc2ccc([N+](=O)[O-])cc2)c2nc(SCc3ccc([N+](=O)[O-])cc3)n(C3OC(CO)C(O)C3O)c2n1 (stereo not given)
inactive: [19] 102 % of control | [20] 118 % of control | [21] 115 % of control

NC1=NCCN1c1cccc2ccccc12
inactive: dose: 75.0 mg/kg/injection, schedule: Q01DX001 (ip), vehicle: carboxymethylcellulose (CMC) 102 % of control | dose: 150.0 mg/kg/injection, schedule: Q01DX001 (ip), vehicle: carboxymethylcellulose (CMC) 98 % of control

CS(=O)(=O)Nc1ccc(NS(C)(=O)=O)c(SCc2ccccc2)c1
inactive: [23] 95 % of control | [11] 96 % of control | [24] 98 % of control | [12] 89 % of control | [25] 95 % of control | [13] 102 % of control

COc1ccc(OC)c(/C=C/c2ccc3ccccc3[n+]2C)c1
inactive: dose: 5.0 mg/kg/injection, schedule: Q04DX003 (ip), vehicle: saline with Tween-80 110 % of control | dose: 10.0 mg/kg/injection, schedule: Q04DX003 (ip), vehicle: saline with Tween-80 111 % of control | dose: 20.0 mg/kg/injection, schedule: Q04DX003 (ip), vehicle: saline with Tween-80 117 % of control

O=S(c1ccccc1)C(Cl)C1(O)CCCCC1 (stereo not given)
inactive: dose: 100.0 mg/kg/injection, schedule: Q03DX002 (ip), vehicle: saline with Tween-80 98 % of control | dose: 200.0 mg/kg/injection, schedule: Q03DX002 (ip), vehicle: saline with Tween-80 98 % of control | dose: 400.0 mg/kg/injection, schedule: Q03DX002 (ip), vehicle: saline with Tween-80 102 % of control

CC1(C)C(N2CCOCC2)CS1(=O)=O (stereo not given)
inactive: [16] 101 % of control | [17] 103 % of control | [14] 94 % of control | [18] 104 % of control | [15] 88 % of control

Cc1ccc(NC(=O)Nc2ccc(C)cc2C)cc1
inactive: [8] 90 % of control | [9] 98 % of control | [10] 92 % of control

CCOC(=O)N/N=C(/C)OCC
inactive: [5] 102 % of control | [7] 102 % of control
